# Measured values reported in patent US9062124B2, “GIP-based mixed agonists for treatment of metabolic disorders and obesity” (priority 2008, dated 2015).
# Where a SMILES comes first, the peptide text is derived from it. Bridges are numbered along the chain shown (N, C = ends). [ ]: non-standard residue; d: D form. The star is where a group is joined. Myristoyl = CCCCCCCCCCCCCC(=O)*; Aib = CC(C)(N)C(=O)O
# Assays:
# Assay type in all cases: cell-based
# GIP receptor = molecular target: T1, GIP receptor (Homo sapiens, UniProt P48546); assay: cAMP synthesis functional assay (firefly luciferase reporter in HEK293 cells), GIP receptor
# T1 construct: expressed in transfected cells; host or cells: HEK293
# T1 sequence (P48546 22-466): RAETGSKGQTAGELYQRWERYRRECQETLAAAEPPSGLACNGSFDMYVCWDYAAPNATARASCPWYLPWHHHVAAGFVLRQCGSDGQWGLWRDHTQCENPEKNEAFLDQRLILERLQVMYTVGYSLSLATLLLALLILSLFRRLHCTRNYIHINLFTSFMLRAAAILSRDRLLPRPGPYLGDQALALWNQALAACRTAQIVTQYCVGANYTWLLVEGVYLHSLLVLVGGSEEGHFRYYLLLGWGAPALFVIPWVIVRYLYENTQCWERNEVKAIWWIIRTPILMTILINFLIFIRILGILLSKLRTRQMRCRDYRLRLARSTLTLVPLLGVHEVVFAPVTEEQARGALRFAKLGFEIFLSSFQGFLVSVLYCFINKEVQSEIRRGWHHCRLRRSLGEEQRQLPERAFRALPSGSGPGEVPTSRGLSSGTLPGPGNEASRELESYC
# GLP-1 receptor = molecular target: T2, GLP-1 receptor (Homo sapiens, UniProt P43220); assay: cAMP synthesis functional assay (firefly luciferase reporter in HEK293 cells), GLP-1 receptor
# T2 construct: expressed in transfected cells; host or cells: HEK293
# glucagon receptor = molecular target: T3, glucagon receptor (Homo sapiens, UniProt P47871); assay: cAMP synthesis functional assay (firefly luciferase reporter in HEK293 cells), glucagon receptor
# T3 construct: expressed in transfected cells; host or cells: HEK293
# [1] = Table 1, relative to the native hormone of the indicated receptor
# [2] = GIP Receptor EC50, cAMP luciferase reporter assay as in Example 16
# [3] = relative to the standard (Std.) EC50 of the same run
# [4] = GLP-1 Receptor EC50, cAMP luciferase reporter assay as in Example 16
# T3 sequence (P47871 26-477): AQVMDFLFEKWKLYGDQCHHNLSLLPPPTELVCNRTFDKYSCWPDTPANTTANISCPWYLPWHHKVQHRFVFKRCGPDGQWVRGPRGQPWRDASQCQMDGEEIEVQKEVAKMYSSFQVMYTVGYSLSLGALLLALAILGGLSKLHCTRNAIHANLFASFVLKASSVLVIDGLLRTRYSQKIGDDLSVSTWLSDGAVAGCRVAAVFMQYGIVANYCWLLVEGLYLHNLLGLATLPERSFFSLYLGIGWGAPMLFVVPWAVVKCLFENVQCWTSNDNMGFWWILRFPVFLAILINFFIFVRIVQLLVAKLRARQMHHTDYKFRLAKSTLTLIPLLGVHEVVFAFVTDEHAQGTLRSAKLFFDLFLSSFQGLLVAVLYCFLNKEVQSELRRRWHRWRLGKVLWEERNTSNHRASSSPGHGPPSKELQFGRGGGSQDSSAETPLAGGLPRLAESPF
# T2 sequence (P43220 24-463, species assumed): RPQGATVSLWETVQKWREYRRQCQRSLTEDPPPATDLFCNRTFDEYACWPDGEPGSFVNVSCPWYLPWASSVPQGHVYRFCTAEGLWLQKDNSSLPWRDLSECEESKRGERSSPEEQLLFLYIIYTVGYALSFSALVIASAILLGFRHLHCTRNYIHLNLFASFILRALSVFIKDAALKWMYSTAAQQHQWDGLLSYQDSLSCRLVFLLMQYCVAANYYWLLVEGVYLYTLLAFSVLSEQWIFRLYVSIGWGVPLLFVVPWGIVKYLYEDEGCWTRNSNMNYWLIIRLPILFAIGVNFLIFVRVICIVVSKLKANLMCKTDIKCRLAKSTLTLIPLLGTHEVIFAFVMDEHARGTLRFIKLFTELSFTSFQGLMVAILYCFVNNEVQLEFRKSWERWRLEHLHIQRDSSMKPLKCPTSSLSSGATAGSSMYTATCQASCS
SMILES,GIP Receptor relative activity (GIP receptor; [1]) [%],GLP-1 Receptor relative activity (GLP-1 receptor; [1]) [%],Glucagon Receptor relative activity (glucagon receptor; [1]) [%],EC50 (GIP receptor; [2]) [nM],GIP Receptor relative activity (GIP receptor; [3]) [%],EC50 (GLP-1 receptor; [4]) [nM],GLP-1 Receptor relative activity (GLP-1 receptor; [3]) [%],Glucagon Receptor relative activity (glucagon receptor; [3]) [%],other results
CC[C@H](C)[C@H](NC(=O)[C@H](CO)NC(=O)[C@H](Cc1ccc(O)cc1)NC(=O)[C@H](CC(=O)O)NC(=O)[C@H](CO)NC(=O)[C@@H](NC(=O)[C@H](Cc1ccccc1)NC(=O)[C@@H](NC(=O)CNC(=O)[C@H](CCC(N)=O)NC(=O)C(C)(C)N)[C@@H](C)O)[C@@H](C)O)C(=O)N[C@@H](Cc1ccc(O)cc1)C(=O)N[C@@H](CC(C)C)C(=O)N[C@@H](CC(=O)O)C(=O)N[C@H]1CCC(=O)NCCCC[C@@H](C(=O)N[C@@H](CCC(=O)O)C(=O)N[C@@H](Cc2ccccc2)C(=O)N[C@H](C(=O)N[C@@H](CC(N)=O)C(=O)N[C@@H](Cc2c[nH]c3ccccc23)C(=O)N[C@@H](CC(C)C)C(=O)N[C@@H](CC(C)C)C(=O)N[C@@H](C)C(=O)NCC(N)=O)C(C)C)NC(=O)[C@H](C)NC(=O)[C@H](C)NC(=O)[C@H](CCC(N)=O)NC1=O [mt-198] (H-[Aib]QGTFTSDYSIYLDEQAAKEFVNWLLAG-NH2; lactam 15-19; N-terminus assumed),0.02,0.17,0.53,–,–,–,–,–,–
CC[C@H](C)[C@H](NC(=O)[C@H](CO)NC(=O)[C@H](Cc1ccc(O)cc1)NC(=O)[C@H](CC(=O)O)NC(=O)[C@H](CO)NC(=O)[C@@H](NC(=O)[C@H](Cc1ccccc1)NC(=O)[C@@H](NC(=O)CNC(=O)[C@H](CCC(N)=O)NC(=O)C(C)(C)NC(=O)[C@@H](N)Cc1ccc(O)cc1)[C@@H](C)O)C(C)C)C(=O)N[C@@H](Cc1ccc(O)cc1)C(=O)N[C@@H](CC(C)C)C(=O)N[C@@H](CC(=O)O)C(=O)N[C@H]1CCC(=O)NCCCC[C@@H](C(=O)N[C@@H](CCC(=O)O)C(=O)N[C@@H](Cc2ccccc2)C(=O)N[C@H](C(=O)N[C@@H](CC(N)=O)C(=O)N[C@@H](Cc2c[nH]c3ccccc23)C(=O)N[C@@H](CC(C)C)C(=O)N[C@@H](CC(C)C)C(=O)N[C@@H](C)C(=O)NCC(=O)NCC(=O)N2CCC[C@H]2C(=O)N[C@@H](CO)C(=O)N[C@@H](CO)C(=O)NCC(=O)N[C@@H](C)C(=O)N2CCC[C@H]2C(=O)N2CCC[C@H]2C(=O)N2CCC[C@H]2C(=O)N[C@@H](CO)C(=O)N[C@@H](CS)C(N)=O)C(C)C)NC(=O)[C@H](C)NC(=O)[C@H](C)NC(=O)[C@H](CCC(N)=O)NC1=O [mt-199] (H-Y[Aib]QGTFVSDYSIYLDEQAAKEFVNWLLAGGPSSGAPPPSC-NH2; lactam 16-20; N-terminus assumed),5.51,1.04,31.31,–,–,–,–,–,"EC50 (GIP receptor; GIP Receptor EC50, nM, Table 1): 0.526 nM; EC50 (GLP-1 receptor; GLP-1 Receptor EC50, nM, Table 1): 2.8 nM; EC50 (glucagon receptor; Glucagon Receptor EC50, nM, Table 1): 0.214 nM"
"CC(C)C[C@H](NC(=O)[C@H](CC(C)C)NC(=O)[C@H](Cc1c[nH]c2ccccc12)NC(=O)[C@H](CC(N)=O)NC(=O)[C@@H](NC(=O)[C@H](Cc1ccccc1)NC(=O)[C@H](CCC(=O)O)NC(=O)[C@@H]1CCCCNC(=O)CC[C@H](NC(=O)[C@H](CC(=O)O)NC(=O)[C@H](CC(C)C)NC(=O)[C@H](Cc2ccc(O)cc2)NC(=O)[C@@H]2CCCCNC(=O)CC[C@H](NC(=O)[C@H](CO)NC(=O)[C@@H](NC(=O)[C@H](Cc3ccccc3)NC(=O)[C@@H](NC(=O)CNC(=O)[C@H](CCC(N)=O)NC(=O)C(C)(C)NC(=O)[C@@H](N)Cc3ccc(O)cc3)[C@@H](C)O)[C@@H](C)O)C(=O)N[C@@H](Cc3ccc(O)cc3)C(=O)N[C@@H](CO)C(=O)N2)C(=O)N[C@@H](CCC(N)=O)C(=O)N[C@@H](C)C(=O)N[C@@H](C)C(=O)N1)C(C)C)C(=O)N[C@@H](C)C(=O)NCC(=O)NCC(=O)N1CCC[C@H]1C(=O)N[C@@H](CO)C(=O)N[C@@H](CO)C(=O)NCC(=O)N[C@@H](C)C(=O)N1CCC[C@H]1C(=O)N1CCC[C@H]1C(=O)N1CCC[C@H]1C(=O)N[C@@H](CO)C(=O)N[C@@H](CS)C(N)=O [mt-209] (H-Y[Aib]QGTFTSEYSKYLDEQAAKEFVNWLLAGGPSSGAPPPSC-NH2; lactam 9-12, 16-20; N-terminus assumed)",1.42,1.33,0.90,–,–,–,–,–,–
CC[C@H](C)[C@H](NC(=O)[C@H](CO)NC(=O)[C@H](Cc1ccc(O)cc1)NC(=O)[C@H](CC(=O)O)NC(=O)[C@H](CO)NC(=O)[C@@H](NC(=O)[C@H](Cc1ccccc1)NC(=O)[C@@H](NC(=O)CNC(=O)[C@H](CCC(N)=O)NC(=O)C(C)(C)NC(=O)[C@@H](N)Cc1ccc(O)cc1)[C@@H](C)O)[C@@H](C)O)C(=O)N[C@@H](Cc1ccc(O)cc1)C(=O)N[C@@H](CC(C)C)C(=O)N[C@@H](CC(=O)O)C(=O)NC(C)(C)C(=O)N[C@@H](CCC(N)=O)C(=O)N[C@@H](C)C(=O)N[C@@H](C)C(=O)N[C@@H](CCCCN)C(=O)N[C@@H](CCC(=O)O)C(=O)N[C@@H](Cc1ccccc1)C(=O)N[C@H](C(=O)N[C@@H](CC(N)=O)C(=O)N[C@@H](Cc1c[nH]c2ccccc12)C(=O)N[C@@H](CC(C)C)C(=O)N[C@@H](CC(C)C)C(=O)N[C@@H](C)C(=O)NCC(=O)NCC(=O)N1CCC[C@H]1C(=O)N[C@@H](CO)C(=O)N[C@@H](CO)C(=O)NCC(=O)N[C@@H](C)C(=O)N1CCC[C@H]1C(=O)N1CCC[C@H]1C(=O)N1CCC[C@H]1C(=O)N[C@@H](CO)C(=O)N[C@@H](CS)C(N)=O)C(C)C [mt-241] (H-Y[Aib]QGTFTSDYSIYLD[Aib]QAAKEFVNWLLAGGPSSGAPPPSC-NH2; N-terminus assumed),–,–,–,–,–,–,–,–,"GIP Receptor relative activity (GIP receptor; Table 2): 4.37%; EC50 (GLP-1 receptor; GLP-1 Receptor EC50, nM, Table 2): 0.023 nM; GLP-1 Receptor relative activity (GLP-1 receptor; Table 2): 130.43%; Glucagon Receptor relative activity (glucagon receptor; Table 2): 3.73%"
CC[C@H](C)[C@H](NC(=O)[C@H](CO)NC(=O)[C@H](Cc1ccc(O)cc1)NC(=O)[C@H](CC(=O)O)NC(=O)[C@H](CO)NC(=O)[C@@H](NC(=O)[C@H](Cc1ccccc1)NC(=O)[C@@H](NC(=O)CNC(=O)[C@H](CCC(=O)O)NC(=O)C(C)(C)NC(=O)[C@@H](N)Cc1ccc(O)cc1)[C@@H](C)O)[C@@H](C)O)C(=O)N[C@@H](Cc1ccc(O)cc1)C(=O)N[C@@H](CC(C)C)C(=O)N[C@@H](CC(=O)O)C(=O)N[C@@H](CCCCN)C(=O)N[C@@H](CCC(N)=O)C(=O)N[C@@H](C)C(=O)N[C@@H](C)C(=O)NC(C)(C)C(=O)N[C@@H](CCC(=O)O)C(=O)N[C@@H](Cc1ccccc1)C(=O)N[C@H](C(=O)N[C@@H](CC(N)=O)C(=O)N[C@@H](Cc1c[nH]c2ccccc12)C(=O)N[C@@H](CC(C)C)C(=O)N[C@@H](CC(C)C)C(=O)N[C@@H](C)C(=O)NCC(=O)NCC(=O)N1CCC[C@H]1C(=O)N[C@@H](CO)C(=O)N[C@@H](CO)C(=O)NCC(=O)N[C@@H](C)C(=O)N1CCC[C@H]1C(=O)N1CCC[C@H]1C(=O)N1CCC[C@H]1C(=O)N[C@@H](CO)C(=O)N[C@@H](CS)C(N)=O)C(C)C [mt-256],–,–,–,0.0034,282.35,0.0124,95.97,0.12,–
CCCCCCCCCCCCCC(=O)NCCCC[C@H](NC(=O)[C@H](CC(=O)O)NC(=O)[C@H](CO)NC(=O)[C@@H](NC(=O)[C@H](Cc1ccccc1)NC(=O)[C@@H](NC(=O)CNC(=O)[C@H](CCC(=O)O)NC(=O)C(C)(C)NC(=O)[C@@H](N)Cc1ccc(O)cc1)[C@@H](C)O)[C@@H](C)O)C(=O)N[C@@H](CO)C(=O)N[C@H](C(=O)N[C@@H](Cc1ccc(O)cc1)C(=O)N[C@@H](CC(C)C)C(=O)N[C@@H](CC(=O)O)C(=O)N[C@@H](CCCCN)C(=O)N[C@@H](CCC(N)=O)C(=O)N[C@@H](C)C(=O)N[C@@H](C)C(=O)NC(C)(C)C(=O)N[C@@H](CCC(=O)O)C(=O)N[C@@H](Cc1ccccc1)C(=O)N[C@H](C(=O)N[C@@H](CC(N)=O)C(=O)N[C@@H](Cc1c[nH]c2ccccc12)C(=O)N[C@@H](CC(C)C)C(=O)N[C@@H](CC(C)C)C(=O)N[C@@H](C)C(=O)NCC(=O)NCC(=O)N1CCC[C@H]1C(=O)N[C@@H](CO)C(=O)N[C@@H](CO)C(=O)NCC(=O)N[C@@H](C)C(=O)N1CCC[C@H]1C(=O)N1CCC[C@H]1C(=O)N1CCC[C@H]1C(=O)N[C@@H](CO)C(N)=O)C(C)C)[C@@H](C)CC [mt-269] (H-Y[Aib]EGTFTSDK(Myristoyl)SIYLDKQAA[Aib]EFVNWLLAGGPSSGAPPPS-NH2; N-terminus assumed),–,–,–,0.0057,140.35,0.0136,144.85,0.11,"EC50 (glucagon receptor; Glucagon Receptor EC50, cAMP luciferase reporter assay as in Example 16): 183 nM"
